pIC50: −log10 of the molar value. Like-named read-outs stand apart in the source and are kept apart here.
Tests used:
[1] = test system: NCI-H1975 (ATCC CRL-5908) cell line comprising an EGFR T790M L858R double mutation; test: EGFR-SOS cellular inhibition assay (CellTiter-Glo cell proliferation); format: cell-based; conditions: Homo sapiens
Method: A CellTiter-Glo (CTG) luminescent based assay (Promega) is used to assess growth of the cells, as a measurement of the ability of the compounds herein to inhibit EGFR signaling in the cells. […] The day after plating, cells are treated with a dilution series (e.g., a 9 point 3-fold dilution series) of the compounds herein (e.g., approximately 125 μL final volume per well).

SOS1 = SOS1 (Homo sapiens (Human), UniProt Q07889); test: Ras-SOS interaction assay (HTRF), K-Ras G13D utilized; format: binding; conditions: K-Ras G13D
[2] = 120 h, NCI-H1975 cell proliferation, approximately 5 days, read-out: H1975 IC50
[3] = NCI-H1975, EGFR T790M L858R double mutation, read-out: IC50 in inhibiting growth of NCI-H1975 cell line
[4] = read-out: IC50 value against SOS1

SOS1, sequence (Q07889 564-1049): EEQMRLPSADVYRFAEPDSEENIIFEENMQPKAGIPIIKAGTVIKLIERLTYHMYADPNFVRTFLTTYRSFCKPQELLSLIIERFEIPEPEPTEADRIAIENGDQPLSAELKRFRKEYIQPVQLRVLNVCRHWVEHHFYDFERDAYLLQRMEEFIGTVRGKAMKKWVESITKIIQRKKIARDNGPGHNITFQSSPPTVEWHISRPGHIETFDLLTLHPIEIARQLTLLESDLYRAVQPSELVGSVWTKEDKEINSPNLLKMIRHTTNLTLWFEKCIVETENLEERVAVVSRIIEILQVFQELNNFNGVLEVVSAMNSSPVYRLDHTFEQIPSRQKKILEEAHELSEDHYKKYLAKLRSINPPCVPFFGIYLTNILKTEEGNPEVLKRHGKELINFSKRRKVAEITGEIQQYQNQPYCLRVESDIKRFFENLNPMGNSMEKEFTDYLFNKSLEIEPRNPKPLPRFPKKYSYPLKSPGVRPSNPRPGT

pIC50 [1, 2] | pIC50 [1, 3] | pIC50 (SOS1; [4]) | pIC50 (SOS1; read-out: SOS1 IC50) | Compound
> 6.00 | > 6.30 | > 7.30 | > 7.00 | C[C@H]1Nc2ncnc3c2cc(C2(C#N)CCS(=O)(=O)CC2)c(=O)n3CCCCCCN2CC(CCC(F)(F)c3cccc1c3)C2 [Compound 213, 4-((3R)-5,5-difluoro-3-methyl-1^7-oxo-1^7,1^8-dihydro-2-aza-1(4,8)-pyrido[2,3-d]pyrimidina-8(3,1)-azetidina-4(1,3)-benzenacyclotetradecaphane-1^6-yl)tetrahydro-2H-thiopyran-4-carbonitrile 1,1-dioxide]
> 6.00 | > 6.30 | > 7.30 | > 7.00 | C[C@H]1Nc2ncnc3c2cc(C2(C#N)CC2)c(=O)n3CCCC/C=C\CN2CCC(CC2)C(F)(F)c2cccc1c2 [Compound 159, 1-((4R,Z)-2,2-difluoro-4-methyl-6^7-oxo-6^7,6^8-dihydro-5-aza-6(4,8)-pyrido[2,3-d]pyrimidina-1(4,1)-piperidina-3(1,3)-benzenacyclotridecaphan-11-en-6^6-yl)cyclopropane-1-carbonitrile]
> 6.00 | – | – | 5.30 to 7.00 | Cc1nc2c3cc(C4CCS(=O)(=O)CC4)c(=O)n(c3n1)CCCC/C=C\CC(C)(O)C(F)(F)c1cccc(c1)[C@@H](C)N2 (stereo partly drawn) [Compound 12, (3R,Z)-1^6-(1,1-dioxidotetrahydro-2H-thiopyran-4-yl)-5,5-difluoro-6-hydroxy-1^2,3,6-trimethyl-1^7,1^8-dihydro-2-aza-1(4,8)-pyrido[2,3-d]pyrimidina-4(1,3)-benzenacyclotridecaphan-8-en-1^7-one]
> 6.00 | – | – | > 7.00 | C/C1=C\CCCCn2c(=O)c(C3CCS(=O)(=O)CC3)cc3c(ncnc32)N[C@H](C)c2cccc(c2)C(F)(F)C2CCN(CC2)C1 [Compound 80, (4R,E)-6^6-(1,1-dioxidotetrahydro-2H-thiopyran-4-yl)-2,2-difluoro-4,12-dimethyl-6^7,6^8-dihydro-5-aza-6(4,8)-pyrido[2,3-d]pyrimidina-1(4,1)-piperidina-3(1,3)-benzenacyclotridecaphan-11-en-6^7-one]
> 6.00 | – | – | > 7.00 | C[C@H]1Nc2ncnc3c2cc(C2CCS(=O)(=O)CC2)c(=O)n3CCCOCCCN2CCC(CC2)CC(F)(F)c2cccc1c2F [Compound 191, (3R)-1^6-(1,1-dioxidotetrahydro-2H-thiopyran-4-yl)-4^2,5,5-trifluoro-3-methyl-1^7,1^8-dihydro-11-oxa-2-aza-1(4,8)-pyrido[2,3-d]pyrimidina-7(4,1)-piperidina-4(1,3)-benzenacyclotetradecaphan-1^7-one]
> 6.00 | – | – | > 7.00 | C[C@H]1Nc2ncnc3c2cc(N2CCN(S(C)(=O)=O)CC2)c(=O)n3CCCCCCCN2CCC(CC2)C(F)(F)c2cccc1c2F [Compound 180, (4R)-3^2,2,2-trifluoro-4-methyl-6^6-(4-(methylsulfonyl)piperazin-1-yl)-6^7,6^8-dihydro-5-aza-6(4,8)-pyrido[2,3-d]pyrimidina-1(4,1)-piperidina-3(1,3)-benzenacyclotride-caphan-6^7-one]
5.00 to 6.00 | – | – | 5.30 to 7.00 | Cc1nc2c3cc(C4(C#N)CC4)c(=O)n(c3n1)CC/C=C\COCC(F)(F)c1cccc(c1F)[C@@H](C)N2 [Compound 3, 1-((3R,Z)-4^2,5,5-trifluoro-1^2,3-dimethyl-1^7-oxo-1^7,1^8-dihydro-7-oxa-2-aza-1(4,8)-pyrido[2,3-d]pyrimidina-4(1,3)-benzenacyclododecaphan-9-en-1^6-yl)cyclopropane-1-carbonitrile]
> 6.00 | – | – | > 7.00 | C[C@H]1Nc2ncnc3c2cc(N2CCN(C4COC4)CC2)c(=O)n3CCCCCCCN2CCC(CC2)C(F)(F)c2cccc1c2F [Compound 179, (4R)-3^2,2,2-trifluoro-4-methyl-6^6-(4-(oxetan-3-yl)piperazin-1-yl)-6^7,6^8-dihydro-5-aza-6(4,8)-pyrido[2,3-d]pyrimidina-1(4,1)-piperidina-3(1,3)-benzenacyclo-tridecaphan-6^7-one]

More lines, now with the values behind:

Compound | pIC50 [1, 2] | pIC50 [1, 3] | pIC50 (SOS1; [4]) | pIC50 (SOS1; read-out: SOS1 IC50)
C[C@H]1Nc2ncnc3c2cc(C2CCS(=O)(=O)CC2)c(=O)n3CCCN(C)C(=O)CCN2CCC(CC2)C(F)(F)c2cccc1c2 [Compound 41, (4R)-6^6-(1,1-dioxidotetrahydro-2H-thiopyran-4-yl)-2,2-difluoro-4,10-dimethyl-6^7,6^8-dihydro-5,10-diaza-6(4,8)-pyrido[2,3-d]pyrimidina-1(4,1)-piperidina-3(1,3)-benzenacyclotridecaphane-6^7,11-dione] | > 6.00 | – | – | > 7.00
C[C@H]1Nc2ncnc3c2cc(C2CCS(=O)(=O)CC2)c(=O)n3CCCCCCN2CC(CCC(F)(F)c3cccc1c3F)C2 [Compound 90, (3R)-1^6-(1,1-dioxidotetrahydro-2H-thiopyran-4-yl)-4^2,5,5-trifluoro-3-methyl-1^7,1^8-dihydro-2-aza-1(4,8)-pyrido[2,3-d]pyrimidina-8(3,1)-azetidina-4(1,3)-benzenacyclotetradecaphan-1^7-one] | > 6.00 | – | – | > 7.00
C[C@H]1Nc2ncnc3c2cc(C2(C#N)CC2)c(=O)n3CCCC(=O)N(C)CCN2CCC(CC2)C(F)(F)c2cccc1c2 [Compound 27, 1-((4R)-2,2-difluoro-4,11-dimethyl-6^7,10-dioxo-6^7,6^8-dihydro-5,11-diaza-6(4,8)-pyrido[2,3-d]pyrimidina-1(4,1)-piperidina-3(1,3)-benzenacyclotridecaphane-6^6-yl)cyclopropane-1-carbonitrile] | > 6.00 | – | – | > 7.00
CC1C/C=C\CCn2c(=O)c(C3CCS(=O)(=O)CC3)cc3c(ncnc32)N[C@H](C)c2cccc(c2F)C(F)(F)C2CCN(CC2)C1 (stereo partly drawn) [Compound 107, (4R,Z)-6^6-(1,1-dioxidotetrahydro-2H-thiopyran-4-yl)-3^2,2,2-trifluoro-4,12-dimethyl-6^7,6^8-dihydro-5-aza-6(4,8)-pyrido[2,3-d]pyrimidina-1(4,1)-piperidina-3(1,3)-benzenacyclotridecaphan-9-en-6^7-one] | > 6.00 | – | – | > 7.00
CC(C)N1CCC(c2cc3c4ncnc3n(c2=O)CCCC/C=C/CN2CCC(CC2)C(F)(F)c2cccc(c2)[C@@H](C)N4)CC1 [Compound 149, (4R,E)-2,2-difluoro-6^6-(1-isopropylpiperidin-4-yl)-4-methyl-6^7,6^8-dihydro-5-aza-6(4,8)-pyrido[2,3-d]pyrimidina-1(4,1)-piperidina-3(1,3)-benzenacyclotridecaphan-11-en-6^7-one] | > 6.00 | – | – | > 7.00
CC(C)N1CCN(c2cc3c4ncnc3n(c2=O)CCCCCCCN2CCC(CC2)C(F)(F)c2cccc(c2)[C@@H](C)N4)CC1 [Compound 123, (4R)-2,2-difluoro-6^6-(4-isopropylpiperazin-1-yl)-4-methyl-6^7,6^8-dihydro-5-aza-6(4,8)-pyrido[2,3-d]pyrimidina-1(4,1)-piperidina-3(1,3)-benzenacyclotridecaphan-6^7-one] | > 6.00 | – | – | > 7.00
Cc1nc2c3cc(C4(C#N)CC4)c(=O)n(c3n1)CCCCCCCCOCC(F)(F)c1cccc(c1F)[C@@H](C)N2 [Compound 49, 1-((3R)-4^2,5,5-trifluoro-1^2,3-dimethyl-1^7-oxo-1^7,1^8-dihydro-7-oxa-2-aza-1(4,8)-pyrido[2,3-d]pyrimidina-4(1,3)-benzenacyclopentadecaphane-1^6-yl)cyclopropane-1-carbonitrile] | > 6.00 | – | – | > 7.00
C[C@H]1Nc2ncnc3c2cc(C2(C#N)CCOCC2)c(=O)n3CCCCCCCN2CCC(CC2)C(F)(F)c2cccc1c2 [Compound 76, 4-((4R)-2,2-difluoro-4-methyl-6^7-oxo-6^7,6^8-dihydro-5-aza-6(4,8)-pyrido[2,3-d]pyrimidina-1(4,1)-piperidina-3(1,3)-benzenacyclotridecaphane-6^6-yl)tetrahydro-2H-pyran-4-carbonitrile] | > 6.00 | – | – | > 7.00
C[C@H]1Nc2ncnc3c2cc(C2(C#N)CCS(=O)(=O)CC2)c(=O)n3CCCCCCCN2CCC(CC2)C(F)(F)c2cccc1c2 [Compound 116, 4-((4R)-2,2-difluoro-4-methyl-6^7-oxo-6^7,6^8-dihydro-5-aza-6(4,8)-pyrido[2,3-d]pyrimidina-1(4,1)-piperidina-3(1,3)-benzenacyclotridecaphane-6^6-yl)tetrahydro-2H-thiopyran-4-carbonitrile 1,1-dioxide] | > 6.00 | – | – | > 7.00
Cc1nc2c3cc(C4(C#N)CC4)c(=O)n(c3n1)CCCC/C=C\CN1CCC(CC1)C(F)(F)c1cccc(c1F)[C@@H](C)N2 [Compound 168, 1-((4R,Z)-3^2,2,2-trifluoro-6^2,4-dimethyl-6^7-oxo-6^7,6^8-dihydro-5-aza-6(4,8)-pyrido[2,3-d]pyrimidina-1(4,1)-piperidina-3(1,3)-benzenacyclotridecaphan-11-en-6^6-yl)cyclopropane-1-carbonitrile] | 5.00 to 6.00 | – | > 7.30 | > 7.00
C[C@@H]1CCCNC(=O)Cn2c(=O)c(C3(C#N)CC3)cc3c(ncnc32)N[C@H](C)c2cccc(c2F)C(F)(F)C2CCN1CC2 [Compound 72, 1-((4R,13R)-3^2,2,2-trifluoro-4,13-dimethyl-6^7,8-dioxo-6^7,6^8-dihydro-5,9-diaza-6(4,8)-pyrido[2,3-d]pyrimidina-1(4,1)-piperidina-3(1,3)-benzenacyclotridecaphane-6^6-yl)cyclopropane-1-carbonitrile] | > 6.00 | – | – | > 7.00
C[C@H]1Nc2ncnc3c2cc(N2CCS(=O)(=O)CC2)c(=O)n3CCCCCCCN2CCC(CC2)C(F)(F)c2cccc1c2 [Compound 42, (4R)-6^6-(1,1-dioxidothiomorpholino)-2,2-difluoro-4-methyl-6^7,6^8-dihydro-5-aza-6(4,8)-pyrido[2,3-d]pyrimidina-1(4,1)-piperidina-3(1,3)-benzenacyclotridecaphan-6^7-one] | > 6.00 | – | – | > 7.00
